Series [1] in a line: single-oral-dose pharmacokinetic study, plasma AVA and metabolite concentrations in pediatric hypercholesterolemia stratified by SLCO1B1 c.521T>C genotype. The class given is in vivo, human. The following applies: for AUC(0-t) / Cmax / Tmax: human, plasma, 10 mg; for Tmax: median (range). Here is the method:
A screening physical examination (including sexual maturity rating via Tanner Staging) was performed prior to ingesting AVA. […] Samples were immediately centrifuged at 4 °C for 10 min at 600 g. Plasma was removed and stored at -80 °C until the analysis. […] All analytical reference compounds were purchased from Toronto Research Chemicals at their highest purity. Plasma proteins were precipitated with acetonitrile and centrifuged, and the filtrates were transferred to a new set of clean, labeled microcentrifuge tubes. An aliquot of the extracts was then transferred to a 96-well plate and analyzed by ultra-performance liquid chromatography tandem mass spectrometry (UPLC-MS/MS) with positive-ion electrospray ionization using multiple-reaction monitoring (MRM). […] Gradient elution was optimized with an acetonitrile-water-MeOH gradient: mobile phase A: water: MeOH: acetic acid (v/v/v), 90:10:0.1; mobile phase B: acetonitrile: methanol: acetic acid (v/v/v), 60:40:0.1. […] All the data acquisition and analysis were carried out by Masslynx 4.2 software. […] The individual peak plasma concentration (Cmax) and time to maximal concentration (Tmax) were obtained by direct examination of the plasma AVA concentration versus hour profile. The area under the plasma concentration versus time curve during the sampling period (AUC0-n) was calculated using the mixed log-linear method, where n refers to the final sampling time with quantifiable plasma AVA or AVA metabolite concentrations. […] Pharmacokinetic parameters were examined in JMP® version 14 (SAS, Cary, NC, USA). Pharmacokinetic parameters reflective of plasma AVA concentrations (Cmax, AUC0-n) and the SLCO1B1 genotype ([…] vs. T/C and C/C) were dependent variables and independent variables, respectively. The Kruskal-Wallis test was leveraged to compare the pharmacokinetic parameters related to genotype groups and demographics. Linear regression to examine the association between the AVA AUCn and […] genotype groups, adjusting for BMI z-score, sex and Tanner score, was performed. […] A single Tanner score was computed by averaging each participant's Tanner breast/testicular and Tanner public hair stage scores. AVA AUC0-24 was first modeled as a function of BMI z-score, sex and Tanner score to estimate the proportion of variability that could be accounted for by these participant characteristics. Then, the count of […] alleles was added to the model to estimate the additional variability accounted for. […] Therefore, the Cmax and AUC were normalized to a dose for each individual participant by dividing the exposure parameter value by the actual mg/kg dose received, then multiplying by the mean mg/kg dose for the entire cohort (e.g., participant AUC (ng·hr/mL)/participant dose (mg/kg) × cohort mean dose (mg/kg)).

The conditions of series [2]: pediatric cohorts; cited from earlier work.
Setting [3] is: female, oral, Table S3, Gender: Female, mean (± SD), read-out: AUC0-24.
The mark [4] stands for this setting: oral, Table S1, entire cohort, median (IQR).
The mark [5] stands for this setting: oral, Table S1, entire cohort, median (IQR), read-out: AUC 0-24.
[6] abbreviates: oral, Table S3, Ethnicity: African-American, mean (± SD), read-out: AUC0-24.
The mark [7] stands for this setting: oral, Table S3, Ethnicity: White, Hispanic, mean (± SD), read-out: AUC0-24.
Where [8] appears, read: oral, Table S3, Ethnicity: White, non-Hispanic, mean (± SD), read-out: AUC0-24.
[9] abbreviates: oral, Table S3, Tanner Breast/Testicular Stage 2, mean (± SD), read-out: AUC0-24.
[10] abbreviates: oral, Table S3, Tanner Breast/Testicular Stage 3, read-out: AUC0-24.
Where [11] appears, read: oral, Table S3, Tanner Breast/Testicular Stage 4, mean (± SD), read-out: AUC0-24.
Setting [12] is: oral, Table S3, Tanner Breast/Testicular Stage 5, mean (± SD), read-out: AUC0-24.
[13] abbreviates: oral, Table S3, Tanner Pubic Stage 1, read-out: AUC0-24.
[14] abbreviates: oral, Table S3, Tanner Pubic Stage 2, mean (± SD), read-out: AUC0-24.
The mark [15] stands for this setting: oral, Table S3, Tanner Pubic Stage 3, read-out: AUC0-24.
[16] abbreviates: oral, Table S3, Tanner Pubic Stage 4, mean (± SD), read-out: AUC0-24.
Setting [17] is: oral, Table S3, Tanner Pubic Stage 5, mean (± SD), read-out: AUC0-24.
Where [18] appears, read: po, SLCO1B1 c.521C/C (n = 2), single oral 10 mg dose, mean (±SD).
The mark [19] stands for this setting: po, SLCO1B1 c.521C/C (n = 2), single oral 10 mg dose.
Setting [20] is: po, SLCO1B1 c.521C/C (n = 2), single oral 10 mg dose, mean (±SD), read-out: AUC0–24.
The mark [21] stands for this setting: po, SLCO1B1 c.521T/C (n = 13), single oral 10 mg dose, mean (±SD).
[22] abbreviates: po, SLCO1B1 c.521T/C (n = 13), single oral 10 mg dose.
Where [23] appears, read: po, SLCO1B1 c.521T/C (n = 13), single oral 10 mg dose, mean (±SD), read-out: AUC0–24.
Where [24] appears, read: po, SLCO1B1 c.521T/T (n = 13), single oral 10 mg dose, mean (±SD).
Where [25] appears, read: po, SLCO1B1 c.521T/T (n = 13), single oral 10 mg dose.
Setting [26] is: po, SLCO1B1 c.521T/T (n = 13), single oral 10 mg dose, mean (±SD), read-out: AUC0–24.
The mark [27] stands for this setting: po, entire cohort (n = 28), median (IQR), single oral 10 mg dose.
Setting [28] is: po, entire cohort (n = 28), median (IQR), single oral 10 mg dose, read-out: AUC0–24.
[29] abbreviates: male, oral, Table S3, Gender: Male, mean (± SD), read-out: AUC0-24.

The structures appear in SMILES notation. Like-named read-outs stand apart in the source and are kept apart here.

Consider `CC(C)c1c(C(=O)Nc2ccccc2O)c(-c2ccccc2)c(-c2ccc(F)cc2)n1CCC1CC(O)CC(=O)O1` (stereo not shown) [2-Hydroxy Atorvastatin Lactone, 2-hydroxyatorvastatin lactone], for which the “effect of SLCO1B1 c.521T>C genotype on exposure” value in series [1] (Kruskal–Wallis across genotype groups) is listed as “not affected by genotype”. The AUC(0-t) was found to be 18 ng·h/mL in series [1] (setting [3]); 14.5 ng·h/mL in series [1] (setting [5]); 16.7 ng·h/mL in series [1] (setting [6]); 17.2 ng·h/mL in series [1] (setting [7]); 16.4 ng·h/mL in series [1] (setting [8]); 31.9 ng·h/mL in series [1] (setting [9]). In addition, the AUC(0-t) in series [1] (setting [10]) came out at 23.4 ng·h/mL; in series [1] (setting [11]) it was 13.4 ng·h/mL; in series [1] (setting [12]), 12.9 ng·h/mL; in series [1] (setting [13]), 39.2 ng·h/mL; in series [1] (setting [14]), 32.7 ng·h/mL; in series [1] (setting [15]) it was 12.7 ng·h/mL. Also, the AUC(0-t) in series [1] (setting [16]) is 8.5 ng·h/mL; in series [1] (setting [17]), 13.7 ng·h/mL; in series [1] (setting [20]), 31 ng·h/mL; in series [1] (setting [23]), 17.4 ng·h/mL; in series [1] (setting [26]) it was 14 ng·h/mL; in series [1] (setting [28]) it was 14.5 ng·h/mL. In series [1] (setting [29]), the AUC(0-t) is 15.7 ng·h/mL. Also, the Cmax (as a rule, the peak of the concentration-time curve) in series [1] (setting [4]) is 1.1 ng/mL; in series [1] (setting [18]), 1.9 ng/mL; in series [1] (setting [21]), 1.3 ng/mL; in series [1] (setting [24]), 1 ng/mL; in series [1] (setting [27]) it was 1.1 ng/mL. The values for the time of peak concentration (Tmax) in series [1] (setting [19]), in series [1] (setting [22]) and in series [1] (setting [25]) were 7 h, 5 h and 7 h, respectively.

Regarding `CC(C)c1c(C(=O)Nc2ccccc2O)c(-c2ccccc2)c(-c2ccc(F)cc2)n1CC[C@@H](O)C[C@@H](O)CC(=O)O` [2-Hydroxy Atorvastatin, 2-hydroxyatorvastatin], the AUC(0-t) in series [1] (setting [3]) was found to be 7.3 ng·h/mL; in series [1] (setting [5]), 6.4 ng·h/mL; in series [1] (setting [6]) it was 6.1 ng·h/mL; in series [1] (setting [7]), 7.6 ng·h/mL; in series [1] (setting [8]), 6.9 ng·h/mL; in series [1] (setting [9]) it was 6 ng·h/mL. The AUC(0-t) in series [1] (setting [10]) came out at 6 ng·h/mL; in series [1] (setting [11]) it was 4.7 ng·h/mL; in series [1] (setting [12]), 8.1 ng·h/mL; in series [1] (setting [13]) it was 5.1 ng·h/mL; in series [1] (setting [14]) it was 6.7 ng·h/mL; in series [1] (setting [15]), 4.1 ng·h/mL. Moreover, the AUC(0-t) was 3.6 ng·h/mL in series [1] (setting [16]); 8 ng·h/mL in series [1] (setting [17]); 10.8 ng·h/mL in series [1] (setting [20]); 7.5 ng·h/mL in series [1] (setting [23]); 6.2 ng·h/mL in series [1] (setting [26]); 6.4 ng·h/mL in series [1] (setting [28]). The AUC(0-t) in series [1] (setting [29]) is 7 ng·h/mL. For the same compound, the highest concentration (Cmax) in series [1] (setting [4]) was found to be 0.7 ng/mL; in series [1] (setting [18]), 1.3 ng/mL; in series [1] (setting [21]), 0.8 ng/mL; in series [1] (setting [24]), 0.7 ng/mL; in series [1] (setting [27]), 0.7 ng/mL. The results for the Tmax in series [1] (setting [19]), in series [1] (setting [22]) and in series [1] (setting [25]) were 5 h, 3 h and 2 h, respectively.

For the compound `CC(C)c1c(C(=O)Nc2ccccc2)c(-c2ccccc2)c(-c2ccc(F)cc2)n1CC[C@@H]1C[C@@H](O)CC(=O)O1` [Atorvastatin Lactone, atorvastatin lactone], the “mean Cmax fold higher, c.521C/C relative to c.521T/T” value in series [1] (c.521C/C (n = 2) vs c.521T/T (n = 13)) is given as 2.1 fold. In series [1] (c.521T/C (n = 13) vs c.521T/T (n = 13)), the “mean Cmax fold higher, c.521T/C relative to c.521T/T” value stood at 1.6 fold. In addition, in series [1] (c.521T/C vs reference genotype), the “mean AUC0–24 fold higher, c.521T/C relative to c.521T/T” value is 1.8 fold. For the same compound, the AUC(0-t) was found to be 12.1 ng·h/mL in series [1] (setting [3]); 8.7 ng·h/mL in series [1] (setting [5]); 11.4 ng·h/mL in series [1] (setting [6]); 13.2 ng·h/mL in series [1] (setting [7]); 10 ng·h/mL in series [1] (setting [8]); 23.3 ng·h/mL in series [1] (setting [9]). Further, the AUC(0-t) in series [1] (setting [10]) was 17.3 ng·h/mL; in series [1] (setting [11]), 7.9 ng·h/mL; in series [1] (setting [12]) it was 8.5 ng·h/mL; in series [1] (setting [13]), 15.4 ng·h/mL; in series [1] (setting [14]), 27.7 ng·h/mL; in series [1] (setting [15]) it was 7.8 ng·h/mL. Also, the AUC(0-t) in series [1] (setting [16]) was found to be 5 ng·h/mL; in series [1] (setting [17]), 8.9 ng·h/mL; in series [1] (setting [20]), 27.8 ng·h/mL; in series [1] (setting [23]), 13 ng·h/mL; in series [1] (setting [26]), 7.2 ng·h/mL; in series [1] (setting [28]) it was 8.7 ng·h/mL. Moreover, the AUC(0-t) in series [1] (setting [29]) came to 10.7 ng·h/mL. For the same compound, the Cmax in series [1] (setting [4]) was 0.9 ng/mL; in series [1] (setting [18]), 1.5 ng/mL; in series [1] (setting [21]), 1.1 ng/mL; in series [1] (setting [24]) it was 0.7 ng/mL; in series [1] (setting [27]) it was 0.9 ng/mL. Besides, the time to peak (Tmax) (in general, the time from dosing to the highest level) in series [1] (setting [19]) stood at 6 h; in series [1] (setting [22]) it was 4 h; in series [1] (setting [25]), 2.5 h.

Regarding `CC(C)c1c(C(=O)Nc2ccccc2)c(-c2ccccc2)c(-c2ccc(F)cc2)n1CC[C@@H](O)C[C@@H](O)CC(=O)O` [Atorvastatin, reference compound], the “participants with secondary peaking suggestive of entero-hepatic recirculation” value in series [1] (12 of 28 participants) is listed as 43%. In addition, in series [1] (single oral 10 mg dose, 28 participants), the adverse events entry is given as “No adverse events were reported”.

Turning to `CC[C@H](C)C(=O)O[C@H]1C[C@H](O)C=C2C=C[C@H](C)[C@H](CC[C@@H](O)C[C@@H](O)CC(=O)O)[C@H]21` [pravastatin], the “within-c.521T>C-genotype variability in plasma statin concentration” value in series [2] is given as 8- to 17 fold.

Source of the values: publication PMC10815823 (Genes, 2024).
